From patent publication US20250034216A1, “STEREOSELECTIVE COVALENT LIGANDS FOR ONCOGENIC AND IMMUNOLOGICAL PROTEINS” (The Scripps Research Institute, priority 2021, published 2025)

Columns and labels:
PSME1_C106 and PSME2_C91 = biological target: T1, PSME1_C106 and PSME2_C91 (Homo sapiens, UniProt Q06323); experiment: IA-DTB cysteine reactivity; type: binding; details: 22Rv1 cells, 20 μM, 1 h
T1 construct: endogenous in cells; host or cells: 22Rv1
Description: Sample preparation: Cells (adherent: 15 cm dishes, suspension: 2 million cells/mL) were treated with electrophilic probes in situ for indicated times and concentrations, washed with ice-cold PBS, and flash frozen in liquid nitrogen. Cell pellets were lysed by sonication (8 pulses, 40% power) in 500 μL ice-cold PBS supplemented with cOmplete protease inhibitors (1 tablet/10 mL of PBS). Whole cell lysates protein content was measured using a standard DC protein assay (Bio-Rad) and 500 μL (2 mg/mL protein content) were treated with 5 μL of 10 mM 1A-DTB (in DMSO) for 1 h at ambient temperature with occasional vortexing. Samples were methanol-chloroform precipitated with the addition of 500 μL ice-cold MeOH and 200 μL CHCl3, vortexed, and centrifuged (10 min, 10,000 g). Without disrupting the protein disk, both top and bottom layers were aspirated and the protein disk was washed with 1 mL ice-cold MeOH and centrifuged (10 min, 10,000 g). The pellets were allowed to air dry, and then re-suspended in 90 μL buffer (9 M urea, 10 mM DTT, 50 mM TEAB pH 8.5). […]
Data processing: Cysteine engagement ratios (probe vs DMSO) were calculated for each peptide-spectra match by dividing each TMT reporter ion intensity by the average intensity for the channels corresponding to DMSO treatment. […]

[1] = system: SIINFEKL presentation in E.G7-Ova cells; experiment: FACS analysis with citric acid wash; type: cell-based, mouse; details: 4 h treatment, recovery up to 4 h
Description: E.G7-Ova cells (2 million/mL) were treated with compounds for 4 hours, washed with PBS, and then washed with 1 mL of 131 mM citric acid for 2 minutes, quenched with 1 mL 66 mM NaH2PO4, and then washed with PBS 3 times. Cells were then resuspended in warm RPMI and allowed to recover for the indicated period, after which cells were washed with PBS and transferred to 96 well plates for staining. Each well was washed with 200 μL PBS, and then stained for 20 minutes with 50 μL of staining solution: 1:1000 fixable near-IR LIVE/DEAD stain (Invitrogen) and 1:200 dilution of anti-SIINFEKL (BioLegend) or anti-Kb (BioLegend) antibody in FACS buffer (2% FBS in PBS supplemented with PenStrep and sterile filtered). Additional wells were used as unstained or singly-stained controls. After staining, cells were washed with PBS, then fixed in 200 μL 4% paraformaldehyde in PBS for 15 minutes. Cells were resuspended in 75 μL FACS buffer and analyzed on a Novocyte flow cytometer. The corresponding data in FIG. 2J are presented as the average percentage of median fluorescence intensity relative to DMSO treated control±SD from n=4 replicates. The corresponding data in FIG. 2K are presented as the average percentage of MFI relative to DMSO treated control±SD from n=3 replicates. Statistical analysis was performed using GraphPad PRISM Version 9.0.0.

T1 sequence (Q06323 whole entry): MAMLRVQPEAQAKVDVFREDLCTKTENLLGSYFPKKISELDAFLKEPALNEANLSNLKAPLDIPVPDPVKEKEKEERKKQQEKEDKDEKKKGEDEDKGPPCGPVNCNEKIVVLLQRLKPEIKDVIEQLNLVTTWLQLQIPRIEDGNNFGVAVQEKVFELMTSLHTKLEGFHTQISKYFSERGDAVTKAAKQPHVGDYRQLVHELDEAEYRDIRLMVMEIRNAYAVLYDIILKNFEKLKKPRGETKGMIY

Structure (SMILES)	IA-DTB reactivity of PSME1 C106 and PSME2 C91 (PSME1_C106 and PSME2_C91)	SIINFEKL presentation after acid wash [1]
C=CC(=O)N1C[C@H](c2ccc(Br)cc2)[C@@H]1C(=O)Nc1cccc2cccnc12 [MY-1B, (2R,3S)-1-acryloyl-3-(4-bromophenyl)-N-(quinolin-8-yl)azetidine-2-carboxamide]	striking, stereoselective increases in reactivity	
CC#CC(=O)N1C[C@H](c2ccc(Br)cc2)[C@@H]1C(=O)Nc1cccc2cccnc12 [MY-45B, (2R,3S)-3-(4-bromophenyl)-1-(but-2-ynoyl)-N-(quinolin-8-yl)azetidine-2-carboxamide]		time- and concentration-dependent reduction in SIINFEKL presentation
